pIC50: −log10 of the molar value.
Key:
[1] = system: NIH3T3 (normal fibroblast cell); experiment: MTT cytotoxicity assay, NIH3T3 healthy cell line; format: cell-based; conditions: Mus musculus, 24-hour MTT, read-out: IC50 against NIH3T3
Procedure: (§1) Cytotoxicity studies were carried out using the MTT method, based on the principle of forming purple formazan salt. The MTT procedure was performed using a CO2 incubator during a 24-hour incubation period, as described in our previous publications. The results were detected with a microplate reader.
(§2) For activity studies, the 24-hour MTT procedure was applied. A549 (Lung cancer cell) (ATCC-CRM-CCL-185), MCF-7 (breast cancer cell) (ATCC-HTB-22), and NIH3T3 (normal fibroblast cell) (ATCC-CRL-1658) were used. Looking at the activity results, compound 4d is promising. […] The value shown against the MCF-7 cell line is especially important. Therefore, compound 4d was subjected to the aromatase enzyme inhibition test in vitro. When the structure of compound 4d was examined, unlike other compounds, it carried a nitro substitution in the fourth position of the phenyl ring.

A549 (Lung cancer cell) = experiment: MTT cytotoxicity assay, A549; format: cell-based; conditions: Homo sapiens; 24-hour MTT, A549 cell line; read-out: IC50 against A549
Procedure: as §1, §2

Aromatase (CYP19A) = molecular target: T1, Aromatase (CYP19A) (Homo sapiens, UniProt P11511); experiment: Aromatase (CYP19A) inhibitor screening kit (fluorometric); format: biochemical; conditions: read-out: IC50 aromatase enzyme inhibition
T1 construct: purchased BioVision
T1 sequence (P11511 1-503): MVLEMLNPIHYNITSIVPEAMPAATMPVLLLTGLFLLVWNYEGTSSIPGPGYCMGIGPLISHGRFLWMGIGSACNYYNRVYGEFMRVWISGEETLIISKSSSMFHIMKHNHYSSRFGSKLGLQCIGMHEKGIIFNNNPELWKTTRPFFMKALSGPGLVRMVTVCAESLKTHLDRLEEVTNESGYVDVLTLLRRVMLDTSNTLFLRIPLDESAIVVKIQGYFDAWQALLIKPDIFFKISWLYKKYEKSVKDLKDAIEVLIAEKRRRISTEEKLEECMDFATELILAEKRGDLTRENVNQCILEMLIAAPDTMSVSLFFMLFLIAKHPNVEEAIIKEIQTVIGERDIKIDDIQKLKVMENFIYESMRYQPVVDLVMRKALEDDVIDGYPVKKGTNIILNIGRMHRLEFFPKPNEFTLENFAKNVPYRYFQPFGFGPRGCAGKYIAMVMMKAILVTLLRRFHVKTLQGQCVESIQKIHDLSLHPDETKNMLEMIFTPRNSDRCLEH
Procedure: In the experiment performed according to the kit procedure, IC50 values of the compound were calculated from the results obtained with the help of a microplate reader (BioVision, Aromatase (CYP19A) Inhibitor Screening Kit (Fluorometric)).

[2] = system: MCF-7 (breast cancer cell); experiment: MTT cytotoxicity assay, MCF-7; format: cell-based; conditions: Homo sapiens, MCF7; 24-hour MTT, MCF-7 cell line; read-out: IC50 against MCF-7
Procedure: as §1, §2

DNA synthesis = experiment: BrdU analysis (DNA synthesis inhibition); format: cell-based
Procedure: Three different incubation periods were selected for the experiment, which was carried out according to the kit procedure. (BioVision, BrdU Cell Proliferation Assay Kit (Fluorometric)). Test results performed at 24-hour, 48-hour, and 72-hour periods were based on fluorimetric measurement of the color change caused by the addition of the stop solution. It enables us to find out where the anticancer effect of anticancer compounds originates from. In other words, the following question persists: by affecting which phase in the cell cycle is DNA synthesis inhibited? BrdU analysis is important to find the answer to this question.
With the Brdu studies, the potential of compound 4d to inhibit DNA synthesis was examined in 24-, 48- and 72-hour periods. […] Since DNA synthesis occurs in the […] of the cell cycle, it would be a correct approach to say that the compounds affect the G2 phase.

| pIC50 (Aromatase (CYP19A)) | Structure (SMILES) | pIC50 [1] | pIC50 (A549 (Lung cancer cell)) | pIC50 [2] | DNA synthesis inhibition (DNA synthesis; 24-hour incubation, 2xIC50 dose) [%] | DNA synthesis inhibition (DNA synthesis; 24-hour incubation, IC50/2 dose) [%] | DNA synthesis inhibition (DNA synthesis; 24-hour incubation, IC50 dose) [%] | DNA synthesis inhibition (DNA synthesis; 48-hour incubation, 2xIC50 dose) [%] | DNA synthesis inhibition (DNA synthesis; 48-hour incubation, IC50/2 dose) [%] | DNA synthesis inhibition (DNA synthesis; 48-hour incubation, IC50 dose) [%] | DNA synthesis inhibition (DNA synthesis; 72-hour incubation, 2xIC50 dose) [%] | DNA synthesis inhibition (DNA synthesis; 72-hour incubation, IC50/2 dose) [%] | DNA synthesis inhibition (DNA synthesis; 72-hour incubation, IC50 dose) [%] |
| --- | --- | --- | --- | --- | --- | --- | --- | --- | --- | --- | --- | --- | --- |
| 7.01 | CCn1c(SCC(=O)c2ccc([N+](=O)[O-])cc2)nnc1-c1nc[nH]c1C [Compound 4d, 2-((4-ethyl-5-(5-methyl-1H-imidazol-4-yl)-4H-1,2,4-triazol-3-yl)thio)-1-(4-nitrophenyl) ethan-1-one] | 4.88 | 4.77 | 5.17 | 63.3 | 16.1 | 28.1 | 79.0 | 40.4 | 77.5 | 92.4 | 77.8 | 80.6 |
| – | CCn1c(SCC(=O)c2ccc(C)cc2C)nnc1-c1[nH]cnc1C [Compound 4h] | 4.56 | 4.77 | < 4.00 | – | – | – | – | – | – | – | – | – |
| – | CCn1c(SCC(=O)c2ccc(Cl)cc2Cl)nnc1-c1[nH]cnc1C [Compound 4j] | 4.73 | 4.18 | 4.54 | – | – | – | – | – | – | – | – | – |
| – | CCn1c(SCC(=O)c2ccc(F)cc2F)nnc1-c1[nH]cnc1C [Compound 4i] | 4.56 | 4.06 | 4.19 | – | – | – | – | – | – | – | – | – |

Reference: article PMC12606616, “Synthesis, Characterization, and In Vitro and In Silico Studies of New Triazole Derivatives as Aromatase Inhibitors” (Medicinal Chemistry (Shariqah (United Arab Emirates), 2024)
